Consider six substances from patent US20030144225A1, “Antisense modulation of macrophage inflammatory protein 3-alpha expression” (priority 2001, published 2003).

Strand notation (5' to 3'): a small letter for the sugar, then the base; units joined by * are phosphorothioate-linked, units joined directly phosphodiester-linked; [ ] holds rarer units or linkages, { } end groups; capitals alone tell only the bases. e = 2'-O-(2-methoxyethyl) (MOE); [5mC] = 5-methylcytosine; d = 2'-deoxy (DNA)

For series [1], the system named is human macrophage inflammatory protein 3-alpha mRNA. In words: Dose-response inhibition of cytokine-induced macrophage inflammatory protein 3-alpha mRNA expression in NHEK cells. In kind it is cell-based. Particulars: 24 Hr after oligonucleotide treatment, percent inhibition of cytokine-induced control, averages from two experiments; for % Inhibition of cytokine induced macrophage inflammatory protein 3-alpha mRNA expression, 50 nM: 50 nM oligonucleotide; for % Inhibition of cytokine induced macrophage inflammatory protein 3-alpha mRNA expression, 100 nM: 100 nM oligonucleotide; for % Inhibition of cytokine induced macrophage inflammatory protein 3-alpha mRNA expression, 200 nM: 200 nM oligonucleotide.

Series [2] has the same test system. Briefly: Antisense inhibition of human macrophage inflammatory protein 3-alpha mRNA levels, quantitative real-time PCR (Table 1 screen). The conditions noted are these: averages from two experiments, oligonucleotide concentration not given. In kind it is cell-based. For orientation: In qPCR the cycle at which signal appears reflects the starting amount.

With “150688 (antisense e[5mC]*eT*eT*eG*eG*dG*d[5mC]*dT*dA*dT*dG*dT*d[5mC]*d[5mC]*dA*eA*eT*eT*e[5mC]*e[5mC]) [compound 150688]”, in series [1], the “% Inhibition of cytokine induced macrophage inflammatory protein 3-alpha mRNA expression, 50 nM” value (shortened to “% Inhibition … 50 nM”) is listed as 43%; the “% Inhibition of cytokine induced macrophage inflammatory protein 3-alpha mRNA expression, 100 nM” value (“% Inhibition … 100 nM” below) is on record as 69%; the “% Inhibition of cytokine induced macrophage inflammatory protein 3-alpha mRNA expression, 200 nM” value (shortened to “% Inhibition … 200 nM”) is on record as 80%. The “% INHIB (inhibition of human macrophage inflammatory protein 3-alpha mRNA levels)” value in series [2] came out at 46%.
For “150689 (antisense e[5mC]*eA*eA*eG*eG*dT*dT*d[5mC]*dT*dT*dT*d[5mC]*dT*dG*dT*eT*e[5mC]*eT*eT*eG) [compound 150689]”, in series [1], the “% Inhibition … 50 nM” value came to 16%; the “% Inhibition … 100 nM” value was found to be 60%; the “% Inhibition … 200 nM” value came to 77%. Besides, in series [2], the “% INHIB (inhibition of human macrophage inflammatory protein 3-alpha mRNA levels)” value turned out to be 41%.
With “150693 (antisense eA*e[5mC]*eT*eA*eT*dG*dA*dT*dG*d[5mC]*dA*dA*dT*dA*dT*eG*eA*eA*eT*e[5mC]) [compound 150693]”, in series [1], the “% Inhibition … 50 nM” value is reported as 25%; the “% Inhibition … 100 nM” value is reported as 58%; the “% Inhibition … 200 nM” value is recorded as 63%. Also, the “% INHIB (inhibition of human macrophage inflammatory protein 3-alpha mRNA levels)” value in series [2] amounted to 29%.
The matching figures for “150687 (antisense eG*eT*e[5mC]*e[5mC]*eA*dA*dT*dT*d[5mC]*d[5mC]*dA*dT*dT*d[5mC]*d[5mC]*eA*eG*eA*eA*eA) [compound 150687]”: 19%, 51%, 65% and 34%.
Regarding “150680 (antisense e[5mC]*eT*e[5mC]*eA*eA*dA*dG*dA*dA*d[5mC]*dA*dG*dA*dT*d[5mC]*eT*eG*e[5mC]*eT*e[5mC]) [compound 150680]”, in series [1], the “% Inhibition … 50 nM” value worked out at 13%; the “% Inhibition … 100 nM” value was 47%; the “% Inhibition … 200 nM” value was found to be 68%. The “% INHIB (inhibition of human macrophage inflammatory protein 3-alpha mRNA levels)” value in series [2] is listed as 41%.
The matching figures for “150692 (antisense eG*e[5mC]*eA*eA*eT*dA*dT*dG*dA*dA*dT*d[5mC]*dA*dA*d[5mC]*eT*eT*e[5mC]*eA*eT) [compound 150692]”: 34%, 59%, 73% and 39%.
